Laboratory results taken from ChEMBL document CHEMBL1149807, “Synthesis and anticancer activity of new class of bisphosphonates/phosphanamidates” (Eur J Med Chem, 2008).

Experiments:
Type in all cases: functional, cell-based
MCF7 = assay: Growth inhibition of human MCF7 cells by MTT assay
NCI-H460 = assay: Growth inhibition of human NCI-H460 cells by MTT assay
SF-268 = assay: Growth inhibition of human SF268 cells by MTT assay

Compound	IC50 (MCF7) [µM]	IC50 (NCI-H460) [µM]	IC50 (SF-268) [µM]
O=P1(C(c2ccc(Cl)cc2)P2(=O)Oc3ccccc3CN2c2ccc(F)c(Cl)c2)Oc2ccccc2CN1c1ccc(F)c(Cl)c1 (stereo unspecified)	14.3	10.9	11.2
C/C=C/C(P1(=O)Oc2ccccc2CN1c1ccc(F)c(Cl)c1)P1(=O)Oc2ccccc2CN1c1ccc(F)c(Cl)c1 (stereo unspecified)	11.3	8.22	8.5
O=P1(C(/C=C/c2ccccc2)P2(=O)Oc3ccccc3CN2c2ccc(F)c(Cl)c2)Oc2ccccc2CN1c1ccc(F)c(Cl)c1 (stereo unspecified)	13.1	11.8	11.6
Cc1ccc(C(P2(=O)OCC(C)(C)CO2)P2(=O)OCC(C)(C)CO2)cc1	> 1000	> 1000	> 1000
Cc1ccc(C(P2(=O)Oc3ccccc3CN2c2ccc(F)c(Cl)c2)P2(=O)Oc3ccccc3CN2c2ccc(F)c(Cl)c2)cc1 (stereo unspecified)	12.7	9	7.69
O=P1(C(c2ccccc2)P2(=O)Oc3ccccc3CN2c2ccc(F)c(Cl)c2)Oc2ccccc2CN1c1ccc(F)c(Cl)c1 (stereo unspecified)	4.05	3.77	2.8
C/C=C/C(P1(=O)OCC(C)(C)CO1)P1(=O)OCC(C)(C)CO1	> 1000	> 1000	> 1000
CC1(C)COP(=O)(C(c2ccccc2)P2(=O)OCC(C)(C)CO2)OC1	> 1000	> 1000	> 1000
CC1(C)COP(=O)(C(c2ccc(Cl)cc2)P2(=O)OCC(C)(C)CO2)OC1	> 1000	> 1000	> 1000
CC1(C)COP(=O)(C(c2cccc([N+](=O)[O-])c2)P2(=O)OCC(C)(C)CO2)OC1	> 1000	> 1000	> 1000
CCN(CC)c1ccc(C(P2(=O)OCC(C)(C)CO2)P2(=O)OCC(C)(C)CO2)cc1	> 1000	> 1000	> 1000
CC1(C)COP(=O)(C(c2ccncc2)P2(=O)OCC(C)(C)CO2)OC1	> 1000	> 1000	> 1000
NP(=O)(O)C(c1ccc(Cl)cc1)P(N)(=O)O (stereo unspecified)	71.3	75.2	90.4
CCN(CC)c1ccc(C(P2(=O)Oc3ccccc3CN2c2ccc(F)c(Cl)c2)P2(=O)Oc3ccccc3CN2c2ccc(F)c(Cl)c2)cc1 (stereo unspecified)	5.71	5.69	3.85
O=[N+]([O-])c1cccc(C(P2(=O)Oc3ccccc3CN2c2ccc(F)c(Cl)c2)P2(=O)Oc3ccccc3CN2c2ccc(F)c(Cl)c2)c1 (stereo unspecified)	17.6	13	10.7
O=P1(C(c2ccncc2)P2(=O)Oc3ccccc3CN2c2ccc(F)c(Cl)c2)Oc2ccccc2CN1c1ccc(F)c(Cl)c1 (stereo unspecified)	11.5	12.3	11.7
CC1(C)COP(=O)(C(/C=C/c2ccccc2)P2(=O)OCC(C)(C)CO2)OC1	> 1000	> 1000	> 1000
